pKd: −log10 of the molar value. Entries after “also recorded” stand apart in the source; their conditions may differ. No end group written: not given here.
Experiments:
[1] = molecular target: T1, ATG8A (Arabidopsis thaliana, UniProt Q8LEM4); assay: Fluorescence anisotropy binding of TAMRA-labeled AtC53 IDR-derived peptides to ATG8A
T1 construct: made in house; host or cells: E. coli Rosetta2 (DE3) pLysS
Method: (§1) For fluorescence anisotropy measurements, all peptides were in‐house synthetized and HPLC purified attached to 5(6)‐Carboxytetramethylrhodamine (TAMRA) to its N‐terminal. Binding affinities of ATG8A or AtUFM1 to TAMRA‐labeled peptides were measured by the change in fluorescence anisotropy in an FS5 Spectrofluorometer (Edinburgh Instruments) with excitation at 550 nm (slit width 5 nm) and emission at 580 nm (slit width 5 nm). […] Binding curves were fitted using Prism Software (GraphPad).

[2] = tested on: GST-ATG8A / mCh-AtC53 interaction; assay: On-bead competition of the ATG8A-AtC53 interaction; assay type: binding, Arabidopsis thaliana; conditions: 1 μM AtC53; cAIM peptide 0-100 μM; 2 independent replicates containing 2 technical replicates
Method: (§2) Glutathione‐Sepharose 4B bead slurry (Cytiva, average diameter 90 μm) was washed and diluted 10 times in HEPES buffer (25 mM HEPES pH 7.5, 150 mM NaCl, 1 mM DTT). The beads were then incubated for 30 min at 4°C (16 rpm horizontal rotation) with GST‐tagged bait proteins (2 μM of GST, GST‐FIP200 CD, GST‐ATG8A, GST‐GABARAP, GST‐AtUFM1, and GST‐HsUFM1). The beads were washed five times in 10 times the bead volume of HEPES buffer. The buffer was removed, and the beads were resuspended 1:20 in HEPES buffer. 10 μl of diluted beads was mixed with 20 μl of mCherry‐tagged binding partner at a concentration of 1.5 μM (0.5 μl bead slurry and 1 μM binding partner final concentrations) with or without competitor, as stated in the relative experiment. […]
(§3) From images acquired from a Zeiss LSM700 confocal microscope, the quantification of fluorescence was performed in ImageJ (Schindelin et al, [2012]) by drawing a line across each bead and taking the maximum gray value along the line. The maximum gray value for any given pixel represents the fluorescence intensity.
(§4) For images acquired from a Zeiss LSM800 confocal microscope, we used a custom Fiji Macro. […] In the end, the mean fluorescent intensities were exported out and used for quantification.
(§5) For each method, the fluorescence intensity was normalized against the mean of the control condition.

[3] = tested on: GST-HsUFM1 / mCh-HsC53 interaction; assay: On-bead competition of the HsUFM1-HsC53 interaction; assay type: binding, Homo sapiens; conditions: 1 μM HsC53; cAIM peptide 0-100 μM; UBA5 LIR peptide or GABARAP 100 μM
Method: as §2, §3, §4, §5

[4] = tested on: GST-GABARAP / mCh-HsC53 interaction; assay: On-bead competition of the GABARAP-HsC53 interaction; assay type: binding, human; conditions: 1 μM HsC53; cAIM peptide 0-100 μM; 4 replicates
Method: as §2, §3, §4, §5

[5] = tested on: GST-GABARAP / MBP-C53 interaction; assay: In vitro GST pulldown competition of the GABARAP-C53 interaction; assay type: binding, human; conditions: cAIM peptide 200 μM; immunoblot read-out
Method: (§6) For pulldown experiments, 5 μl of glutathione magnetic agarose beads (Pierce Glutathione Magnetic Agarose Beads, Thermo Scientific) was equilibrated by washing them two times with wash buffer (100 mM Sodium Phosphate pH 7.2, 300 mM NaCl, 1 mM DTT, 0.01% (v/v) IGEPAL). Normalized E. coli clarified lysates or purified proteins were mixed, according to the experiment, added to the washed beads, and incubated on an end‐over‐end rotator for 1 h at 4°C. Beads were washed five times with 1 ml wash buffer. Bound proteins were eluted by adding 50 μl Laemmli buffer. Samples were analyzed by western blotting or Coomassie staining.

[6] = tested on: GST-AtUFM1 / mCh-AtC53 interaction; assay: On-bead competition of the AtUFM1-AtC53 interaction; assay type: binding, Arabidopsis thaliana; conditions: 1 μM AtC53; cAIM peptide 0-100 μM; 2 independent replicates containing 2 technical replicates
Method: as §2, §3, §4, §5

[7] = tested on: GST-HsUFM1 / MBP-HsC53 interaction; assay: In vitro GST pulldown competition of the HsUFM1-HsC53 interaction; assay type: binding, Homo sapiens; conditions: cAIM peptide 200 μM; immunoblot read-out
Method: as §6

[8] = tested on: HsUFM1; assay: Native mass spectrometry (nMS) complex formation with HsUFM1; assay type: binding, Homo sapiens; conditions: HsUFM1 5 μM, peptide 25 μM
Method: Proteins were buffer exchanged into ammonium acetate using BioRad Micro Bio‐Spin 6 Columns. Native mass spectrometry experiments were carried out on a Synapt G2Si instrument (Waters, Manchester, UK) with a nanoelectrospray ionization source (nESI). Mass calibration was performed by a separate infusion of NaI cluster ions. Solutions were ionized from a thin‐walled borosilicate glass capillary (i.d. 0.78 mm, o.d. 1.0 mm, Sutter Instrument Co., Novato, CA, USA) pulled in‐house to nESI tip with a Flaming/Brown micropipette puller (Sutter Instrument Co., Novato, CA, USA). A potential of 0.8 kV was applied to the solution via a thin platinum wire (diameter 0.125 mm, Goodfellow, Huntingdon, UK). The following instrument parameters were used: capillary voltage 0.8 kV, sample cone voltage 40 V, source offset 60 V, source temperature 40°C, trap collision energy 4.0 V, and trap gas 3 ml/min. Data were processed using Masslynx V4.2 and OriginPro 2021.

[9] = molecular target: T2, AtUFM1 (Arabidopsis thaliana, UniProt Q9CA23); assay: Fluorescence anisotropy binding of TAMRA-labeled AtC53 IDR-derived peptides to AtUFM1
T2 construct: made in house; host or cells: E. coli Rosetta2 (DE3) pLysS
Method: as §1

T1 sequence (Q8LEM4 whole entry): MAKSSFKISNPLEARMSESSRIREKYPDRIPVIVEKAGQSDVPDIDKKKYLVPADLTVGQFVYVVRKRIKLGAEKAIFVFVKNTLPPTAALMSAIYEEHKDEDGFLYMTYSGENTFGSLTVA
T2 sequence (Q9CA23 whole entry): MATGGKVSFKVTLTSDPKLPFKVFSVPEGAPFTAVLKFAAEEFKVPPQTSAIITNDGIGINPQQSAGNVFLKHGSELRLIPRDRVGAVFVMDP

DVSEISWDVSVET [sAIM3]
pKd [1]: 3.75

EPLDFDWEIVLEEEM [cAIM peptide]
Competition of the AtC53-ATG8A interaction (in words) [2]: outcompeted | Competition of the HsC53-HsUFM1 interaction (in words) [3]: could not outcompete | Competition of the HsC53-GABARAP interaction (in words) [4]: outcompeted | Competition of the GABARAP-C53 interaction in pulldown (in words) [5]: outcompeted | Competition of the AtC53-AtUFM1 interaction (in words) [6]: could not outcompete | Competition of the HsUFM1-HsC53 interaction in pulldown (in words) [7]: cannot outcompete | Complex formation with HsUFM1 by nMS (in words) [8]: did not appreciably interact; also recorded: negligible amount of 1:1 complex

AADSWDDIITVET [cAIM mut]
pKd [1]: 4.03

GPLHDDNEWNISVVDD [UBA5 LIR peptide]
Competition of the HsC53-HsUFM1 interaction (in words) [3]: able to disrupt | Complex formation with HsUFM1 by nMS (in words) [8]: forms a 1:1 complex

AADSIDADITVET [sAIM mut, sAIM mutant peptide where the tryptophan was mutated to alanine]
Behaviour in fluorescence anisotropy titration with UFM1 (in words) ([9]; 50 nM TAMRA-labeled peptide, up to 320 μM AtUFM1): did not show any change | Behaviour in fluorescence anisotropy titration with ATG8 (in words) ([1]; 50 nM TAMRA-labeled peptide, up to 320 μM ATG8A): did not show any change

AADSIDWDITVETPEIDWDVSMVEEV [sAIM1,2]
pKd [9]: 3.83
